Laboratory results taken from the supplement of paper PMC11061612.

How the values were obtained:
Assay in all cases: combination Emax (second highest fraction inhibited in the dose matrix, 72 h); higher = more inhibition; extreme values may be limits of the assay
[1] = system: 8305C (Thyroid Gland Carcinoma)
How it was run: (§1)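 Cell lines grown in DMEM/F12 or RPMI with 10% FBS were plated in 1536-well plates and held 24 hours at 37°C, 5% CO2 before 72 hours of exposure to two-drug dose matrices, with DMSO typically at 0.2%. CellTiter-Glo 2.0 luminescence gave viability, which was converted to inhibition. Vehicle wells were set to 0 and blank wells to 1. Combination Emax is the second-highest inhibition in the matrix, and Bliss excess is the observed combination effect minus the expected EA + EB − EA·EB, where EA and EB are the single-agent effects.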

[2] = system: EN (Endometrial Carcinoma)
How it was run: as §1

HMV-II (Melanoma) = system: HMV-II (Melanoma)
How it was run: as §1

[3] = system: HO-1-u-1 (Oral Cavity Carcinoma)
How it was run: as §1

[4] = system: Hs-633T (Other Solid Carcinomas)
How it was run: as §1

[5] = system: K5 (Thyroid Gland Carcinoma)
How it was run: as §1

[6] = system: LU-139 (Small Cell Lung Carcinoma)
How it was run: as §1

Mewo (Melanoma) = system: Mewo (Melanoma)
How it was run: as §1

NB14 (Neuroblastoma) = system: NB14 (Neuroblastoma)
How it was run: as §1

[7] = system: NCI-H69 (Small Cell Lung Carcinoma)
How it was run: as §1

[8] = system: OC-314 (Ovarian Carcinoma)
How it was run: as §1

[9] = system: PCI-30 (Head and Neck Carcinoma)
How it was run: as §1

[10] = system: RKO (Colorectal Carcinoma)
How it was run: as §1

[11] = system: RPMI-6666 (Non-Cancerous)
How it was run: as §1

[12] = system: RT-112 (Bladder Carcinoma)
How it was run: as §1

SH-4 (Melanoma) = system: SH-4 (Melanoma)
How it was run: as §1

[13] = system: SK-OV-3 (Ovarian Carcinoma)
How it was run: as §1

[14] = system: SU-DHL-6 (B-Cell Non-Hodgkin's Lymphoma)
How it was run: as §1

[15] = system: SW1116 (Colorectal Carcinoma)
How it was run: as §1

[16] = system: SW1271 (Small Cell Lung Carcinoma)
How it was run: as §1

| SMILES | combination Emax [1] | combination Emax [2] | combination Emax (HMV-II (Melanoma)) | combination Emax [3] | combination Emax [4] | combination Emax [5] | combination Emax [6] | combination Emax (Mewo (Melanoma)) | combination Emax (NB14 (Neuroblastoma)) | combination Emax [7] | combination Emax [8] | combination Emax [9] | combination Emax [10] | combination Emax [11] | combination Emax [12] | combination Emax (SH-4 (Melanoma)) | combination Emax [13] | combination Emax [14] | combination Emax [15] | combination Emax [16] |
| --- | --- | --- | --- | --- | --- | --- | --- | --- | --- | --- | --- | --- | --- | --- | --- | --- | --- | --- | --- | --- |
| CN(CCO)CC[C@H](CSc1ccccc1)Nc1ccc(S(=O)(=O)NC(=O)c2ccc(N3CCC([C@@H](O)c4ccccc4-c4ccc(Cl)cc4)CC3)cc2)cc1S(=O)(=O)C(F)(F)F [AZD4320] + C[C@@H](Nc1cc(F)cc(F)c1)c1cc(C(=O)N(C)C)cc2c(=O)cc(N3CCOCC3)oc12 [AZD8186] (first compound max 1 µM, 7x7, partner max 3 µM) | 0.669 | 0.354 | 0.383 | 0.369 | 0.503 | 0.619 | 0.943 | 0.332 | 1 | 0.885 | 0.433 | 0.321 | 0.32 | 0.996 | 0.435 | 0.308 | 0.407 | 1 | 0.275 | 0.649 |
| CN(CCO)CC[C@H](CSc1ccccc1)Nc1ccc(S(=O)(=O)NC(=O)c2ccc(N3CCC([C@@H](O)c4ccccc4-c4ccc(Cl)cc4)CC3)cc2)cc1S(=O)(=O)C(F)(F)F [AZD4320] + Nc1ccn([C@@H]2O[C@H](CO)[C@@H](O)C2(F)F)c(=O)n1 [Gemcitabine] (first compound max 1 µM, 7x7, partner max 0.3 µM) | 0.625 | 0.337 | 0.619 | 0.563 | 0.992 | 0.688 | 0.961 | 0.451 | 0.993 | 0.946 | 0.989 | 0.743 | 0.928 | 0.985 | 0.507 | 0.642 | 0.308 | 0.998 | 0.184 | 0.872 |
| O=C(c1cc(Cc2n[nH]c(=O)c3ccccc23)ccc1F)N1CCN(C(=O)C2CC2)CC1 [Olaparib] + CN(CC[C@H](CSC1=CC=CC=C1)NC2=C(C=C(C=C2)S(=O)(=O)NC(=O)C3=CC=C(C=C3)N4CCC(CC4)[C@H](C5=CC=CC=C5C6=CC=C(C=C6)Cl)O)S(=O)(=O)C(F)(F)F)CCO [AZD4320] (first compound max 10 µM, 7x7, partner max 1 µM) | 0.385 | 0.297 | 0.0872 | 0.29 | 0.2 | 0.199 | 0.958 | 0.0936 | 0.882 | 0.954 | 0.262 | 0.188 | 0.11 | 0.94 | 0.153 | 0.162 | 0.219 | 0.919 | 0.118 | 0.21 |
| C[C@@H](Oc1cc(-c2cnn(C3CCNCC3)c2)cnc1N)c1c(Cl)ccc(F)c1Cl [Crizotinib] + Cn1cnc2c(F)c(Nc3ccc(Br)cc3Cl)c(C(=O)NOCCO)cc21 [Selumetinib] (first compound max 10 µM, 7x7, partner max 10 µM) | 0.801 | 0.401 | 0.934 | 0.639 | 0.896 | 0.682 | 0.684 | 0.541 | 0.966 | 0.621 | 0.494 | 0.238 | 0.982 | 0.672 | 0.819 | 0.91 | 0.249 | 1 | 0.518 | 0.896 |
| C[C@@H]1COCCN1c1cc(C2([S@](C)(=N)=O)CC2)nc(-c2ccnc3[nH]ccc23)n1 [AZD6738] + Nc1ccn([C@@H]2O[C@H](CO)[C@@H](O)C2(F)F)c(=O)n1 [Gemcitabine] (first compound max 10 µM, 7x7, partner max 0.3 µM) | 0.721 | 0.66 | 0.724 | 0.926 | 0.937 | 0.778 | 0.841 | 0.768 | 1 | 0.851 | 0.993 | 0.795 | 0.954 | 0.936 | 0.936 | 0.623 | 0.625 | 0.945 | 0.553 | 0.7 |
| C[C@@H]1COCCN1c1cc(C2([S@](C)(=N)=O)CC2)nc(-c2ccnc3[nH]ccc23)n1 [AZD6738] + C1CC(C1)(C(=O)[O-])C(=O)[O-].N.N.[Pt+2] [Carboplatin] (first compound max 10 µM, 7x7, partner max 10 µM) | 0.501 | 0.537 | 0.454 | 0.75 | 0.836 | 0.517 | 0.258 | 0.526 | 0.952 | 0.373 | 0.814 | 0.45 | 0.932 | 0.7 | 0.679 | 0.277 | 0.36 | 0.285 | 0.247 | 0.356 |
| C=CCn1c(=O)c2cnc(Nc3ccc(N4CCN(C)CC4)cc3)nc2n1-c1cccc(C(C)(C)O)n1 [AZD1775] + Nc1ccn([C@@H]2O[C@H](CO)[C@@H](O)C2(F)F)c(=O)n1 [Gemcitabine] (first compound max 1 µM, partner max 0.3 µM) | 0.574 | 0.581 | 0.632 | 0.693 | 0.863 | 0.568 | 0.795 | 0.583 | 1 | 0.611 | 0.972 | 0.677 | 0.882 | 0.917 | 0.956 | 0.577 | 0.583 | 0.958 | 0.405 | 0.617 |
| CN(CCO)CC[C@H](CSc1ccccc1)Nc1ccc(S(=O)(=O)NC(=O)c2ccc(N3CCC([C@@H](O)c4ccccc4-c4ccc(Cl)cc4)CC3)cc2)cc1S(=O)(=O)C(F)(F)F [AZD4320] + CC(=O)O[C@H]1C(=O)[C@@]2(C)[C@H]([C@H](OC(=O)c3ccccc3)[C@]3(O)C[C@H](OC(=O)[C@H](O)[C@@H](NC(=O)c4ccccc4)c4ccccc4)C(C)=C1C3(C)C)[C@]1(OC(C)=O)CO[C@@H]1C[C@@H]2O [Paclitaxel] (first compound max 1 µM, 7x7, partner max 3 µM) | 0.846 | 0.757 | 0.853 | 0.965 | 1 | 0.94 | 0.964 | 0.78 | 1 | 0.991 | 1 | 0.875 | 1 | 1 | 0.991 | 0.531 | 0.978 | 1 | 0.586 | 0.927 |
| CC1(C)CCC(CN2CCN(c3ccc(C(=O)NS(=O)(=O)c4ccc(NCC5CCOCC5)c([N+](=O)[O-])c4)c(Oc4cnc5[nH]ccc5c4)c3)CC2)=C(c2ccc(Cl)cc2)C1 [Venetoclax] + CS(=O)(=O)CCNCc1ccc(-c2ccc3ncnc(Nc4ccc(OCc5cccc(F)c5)c(Cl)c4)c3c2)o1 [Lapatinib] (first compound max 1 µM, 7x7, partner max 10 µM) | 0.356 | 0.288 | 0.519 | 0.673 | 0.213 | 0.187 | 0.19 | 0.176 | 0.948 | 0.724 | 0.399 | 0.167 | 0.325 | 0.55 | 0.146 | 0.0973 | 0.345 | 0.975 | 0.288 | 0.373 |
| CN(CCO)CC[C@H](CSc1ccccc1)Nc1ccc(S(=O)(=O)NC(=O)c2ccc(N3CCC([C@@H](O)c4ccccc4-c4ccc(Cl)cc4)CC3)cc2)cc1S(=O)(=O)C(F)(F)F [AZD4320] + CS(=O)(=O)CCNCc1ccc(-c2ccc3ncnc(Nc4ccc(OCc5cccc(F)c5)c(Cl)c4)c3c2)o1 [Lapatinib] (first compound max 1 µM, 7x7, partner max 10 µM) | 0.677 | 0.229 | 0.773 | 0.983 | 0.452 | 0.355 | 0.985 | 0.492 | 0.993 | 0.997 | 0.729 | 0.369 | 0.477 | 0.951 | 0.351 | 0.239 | 0.869 | 0.997 | 0.823 | 0.484 |
| O=C(c1cc(Cc2n[nH]c(=O)c3ccccc23)ccc1F)N1CCN(C(=O)C2CC2)CC1 [Olaparib] + COc1nnc2ccc(N3CCC(c4ccc(OCCN5CCN(C)C(=O)[C@H]5C)cc4)CC3)nn12 [AZD5153] (first compound max 10 µM, 7x7, partner max 1 µM) | 0.495 | 0.347 | 0.474 | 0.454 | 0.612 | 0.611 | 0.896 | 0.417 | 0.574 | 0.488 | 0.798 | 0.251 | 0.672 | 0.633 | 0.157 | 0.514 | 0.516 | 0.917 | 0.332 | 0.573 |
